Laboratory results: patent US9518046B2 (Calitor Sciences, LLC, priority 2015, dated 2016)

Test: Pharmacokinetics after intravenous and oral administration in rats
Type: in vivo
Conditions: Rats; iv dosing; dose 1 mg/kg (0.5 for Ex. 1, 10, 11, 35; 0.48 for Ex. 24)
Description: The LC/MS/MS system used in the analysis consists of an Agilent 1200 Series vacuum degasser, binary pump, well-plate autosampler, thermostatted column compartment, the Agilent G6430 Triple Quadrupole Mass Spectrometer with an electrosprayionization (ESI) source. Quantitative analysis was carried out using MRM mode. The parameters for MRM transitions are in the Table A.
An Agilent XDB-C18, 2.1×30 mm, 3.5 M column was used for the analysis. 5 L of the samples were injected. Analysis condition: The mobile phase was 0.1% formic acid in water (A) and 0.1% formic acid in methanol (B). The flow rate was 0.4 mL/min. And the gradient of Mobile phase was in the Table B.
Alternatively, an Agilent 6330 series LC/MS/MS spectrometer equipped with G1312A binary pumps, a G1367A autosampler and a G1314C UV detector were used in the analysis. An ESI source was used on the LC/MS/MS spectrometer. The analysis was done in positive ion mode as appropriate and the MRM transition for each analyte was optimized using standard solution. A Capcell MP-C18 100×4.6 mm I.D., […] column (Phenomenex, Torrance, Calif., USA) was used during the analysis. The mobile phase was 5 mM ammonia acetate, 0.1% MeOH in water (A): 5 mM ammonia acetate, 0.1% MeOH in acetonitrile (B) (70:30, v/v). The flow rate was 0.6 mL/min. Column was maintained at ambient temperature. 20 μL of the samples were injected.
The compounds disclosed herein are assessed in pharmacokinetic studies in mice, rats, dogs or monkeys. The compounds are administered as a water solution, 2% HPMC+1% TWEEN®80 in water solution, 5% DMSO+5% solutol in saline, 4% MC suspension or capsule. For the intravenous administration, the animals are generally given at 1 or 2 mg/kg dose. For the oral (p.o.) dosing, mice and rats are generally given 5 or 10 mg/kg dose, and dogs and monkeys are generally given 10 mg/kg dose. The blood samples (0.3 mL) are drawn at 0.25, 0.5, 1.0, 2.0, 3.0, 4.0, 6.0, 8.0, 12 and 24 h time points or 0.083, 0.25, 0.5, 1.0, 2.0, 4.0, 6.0, 8.0 and 24 h time points and centrifuged at 3,000 or 4000 rpm for 2 to 10 min. The plasma solutions are collected, stored at −20° C. or −70° C. until analyzed by LC/MS/MS as described above.

`CC[C@H](Nc1ncnc(N)c1-c1noc(C)n1)c1nc2cccc(C)c2c(=O)n1C1CC1` and `CC[C@H](Nc1ncnc(N)c1-c1noc(C)n1)c1nc2cccc(Cl)c2c(=O)n1C1CC1` [Ex. 12, (S)-2-(1-((6-amino-5-(5-methyl-1,2,4-oxadiazol-3-yl)pyrimidin-4-yl)amino)-propyl)-5-chloro-3-cyclopropylquinazolin-4(3H)-one] are within 1.5-fold of each other in CL/F: 40.3 mL/min/kg for the first, 31.8 mL/min/kg for the second.

`CC[C@H](Nc1ncnc(N)c1-c1noc(C)n1)c1nc2ccccc2c(=O)n1-c1ccccc1F` and `CC[C@H](Nc1ncnc(N)c1-c1nc(C)no1)c1nc2ccccc2c(=O)n1-c1ccccc1F` (single isomer, unassigned) [Ex. 22] are within 1.5-fold of each other in CL/F: 118 mL/min/kg for the first, 159 mL/min/kg for the second.

`CC[C@H](Nc1ncnc(N)c1-c1noc(C)n1)c1nc2cccc(C)c2c(=O)n1-c1ccccc1C` (single isomer, unassigned) [Ex. 15] and `CC[C@H](Nc1ncnc(N)c1-c1nc(C)no1)c1nc2cccc(C)c2c(=O)n1-c1ccccc1C` (single isomer, unassigned) [Ex. 27] are within 1.5-fold of each other in CL/F: 74.2 mL/min/kg for the first, 61.7 mL/min/kg for the second.

`CC[C@H](Nc1ncnc(N)c1-c1nnc(C)o1)c1nc2ccccc2c(=O)n1-c1ccccc1F` (single isomer, unassigned) [Ex. 24] and `CC[C@H](Nc1ncnc(N)c1-c1nnc(C)o1)c1nc2cccc(Cl)c2c(=O)n1-c1ccccc1` [Ex. 1, (S)-2-(1-((6-amino-5-(5-methyl-1,3,4-oxadiazol-2-yl)pyrimidin-4-yl)amino)-propyl)-5-chloro-3-phenylquinazolin-4(3H)-one] are within 1.5-fold of each other in CL/F: 70.5 mL/min/kg for the first, 47.3 mL/min/kg for the second.

Going from `CC[C@H](Nc1ncnc(N)c1-c1ncc(C)o1)c1nc2cccc(C)c2c(=O)n1-c1ccccc1C` (single isomer, unassigned) [Ex. 28] to `CC[C@H](Nc1ncnc(N)c1-c1nc(C)co1)c1nc2cccc(C)c2c(=O)n1-c1ccccc1C` (single isomer, unassigned) [Ex. 29], the CL/F rises from 61.2 mL/min/kg to 130 mL/min/kg (2.1-fold).

`CC[C@H](Nc1ncnc(N)c1-c1ncn(C)n1)c1nc2cccc(C)c2c(=O)n1-c1ccccc1C` (single isomer, unassigned) [Ex. 30] and `CC[C@H](Nc1ncnc(N)c1-c1ncn(C)n1)c1nc2cccc(Cl)c2c(=O)n1-c1ccccc1F` (single isomer, unassigned) [Ex. 45] are within 1.5-fold of each other in CL/F: 70.5 mL/min/kg for the first, 61.8 mL/min/kg for the second.

`CC[C@H](Nc1ncnc(N)c1-c1nnc(C)o1)c1nc2cccc(C)c2c(=O)n1-c1ccccc1C` (single isomer, unassigned) [Ex. 31] and `CC[C@H](Nc1ncnc(N)c1-c1nnc(C)o1)c1nc2cccc(C)c2c(=O)n1C1CC1` [Ex. 20] are within 1.5-fold of each other in CL/F: 64.8 mL/min/kg for the first, 77.3 mL/min/kg for the second.

`CC[C@H](Nc1ncnc(N)c1-c1nnc(C)o1)c1nc2cccc(Cl)c2c(=O)n1C1CC1` [Ex. 2, (S)-2-(1-((6-amino-5-(5-methyl-1,3,4-oxadiazol-2-yl)pyrimidin-4-yl)amino)-propyl)-5-chloro-3-cyclopropylquinazolin-4(3H)-one] and `CC[C@H](Nc1ncnc(N)c1-c1ncc(C)o1)c1nc2cccc(Cl)c2c(=O)n1C1CC1` [Ex. 7, (S)-2-(1-((6-amino-5-(5-methyloxazol-2-yl)pyrimidin-4-yl)amino)propyl)-5-chloro-3-cyclopropylquinazolin-4(3H)-one] are within 1.5-fold of each other in CL/F: 41.2 mL/min/kg for the first, 54.8 mL/min/kg for the second.

`CC[C@H](Nc1ncnc(N)c1-c1nc(C)no1)c1nc2cccc(Cl)c2c(=O)n1-c1ccccc1` [Ex. 3, (S)-2-(1-((6-amino-5-(3-methyl-1,2,4-oxadiazol-5-yl)pyrimidin-4-yl)amino)-propyl) 5-chloro-3-phenylquinazolin-4(3H)-one] and `CC[C@H](Nc1ncnc(N)c1-c1noc(C)n1)c1nc2cccc(Cl)c2c(=O)n1-c1ccccc1` [Ex. 13, (S)-2-(1-((6-amino-5-(5-methyl-1,2,4-oxadiazol-3-yl)pyrimidin-4-yl)amino)-propyl)-5-chloro-3-phenylquinazolin-4(3H)-one] are within 1.5-fold of each other in CL/F: 70.8 mL/min/kg for the first, 72.5 mL/min/kg for the second.

Compared with `CC[C@H](Nc1ncnc(N)c1C1=N[C@@H](C)CO1)c1nc2cccc(Cl)c2c(=O)n1C1CC1` [Ex. 5, 2-((S)-1-((6-amino-5-((S)-4-methyl-4,5-dihydrooxazol-2-yl)pyrimidin-4-yl)amino)propyl)-5-chloro-3-cyclopropylquinazolin-4(3H)-one], `CC[C@@H](Nc1ncnc(N)c1-c1nc(C)no1)c1nc2cccc(Cl)c2c(=O)n1C1CC1` [Ex. 19, (R)-2-(1-((6-amino-5-(3-methyl-1,2,4-oxadiazol-5-yl)pyrimidin-4-yl)amino)propyl)-5-chloro-3-cyclopropylquinazolin-4(3H)-one] is 2.1-fold higher in CL/F: 59.5 mL/min/kg for the first, 127 mL/min/kg for the second.

First: CC[C@H](Nc1ncnc(N)c1C1=N[C@@H](C)CO1)c1nc2cccc(Cl)c2c(=O)n1-c1ccccc1 [Ex. 6]
Second: CC[C@H](Nc1ncnc(N)c1-c1ncnn1C)c1nc2cccc(Cl)c2c(=O)n1-c1ccccc1 [Ex. 10, 2-((1S)-1-((6-amino-5-(1-methyl-H-1,2,4-triazol-5-yl)pyrimidin-4-yl)amino)propyl)-5-chloro-3-phenylquinazolin-4(3H)-one]
The CL/F of the first is 31-fold higher: 110 mL/min/kg for the first, 3.5 mL/min/kg for the second.

Going from `CC[C@H](Nc1ncnc(N)c1-c1ncnn1C)c1nc2cccc(Cl)c2c(=O)n1C1CC1` [Ex. 9, 2-((1S)-1-((6-amino-5-(1-methyl-1H-1,2,4-triazol-5-yl)pyrimidin-4-yl)amino)-propyl)-5-chloro-3-cyclopropylquinazolin-4(3H)-one] to `CC[C@H](Nc1ncnc(N)c1-c1ccon1)c1nc2cccc(Cl)c2c(=O)n1C1CC1` [Ex. 14, (S)-2-(1-((6-amino-5-(isoxazol-3-yl)pyrimidin-4-yl)amino)propyl)-5-chloro-3-cyclopropylquinazolin-4(3H)-one], the CL/F rises from 27.3 mL/min/kg to 46.7 mL/min/kg (1.7-fold).

Going from `CC[C@H](Nc1ncnc(N)c1-c1ccccn1)c1nc2cccc(Cl)c2c(=O)n1C1CC1` [Ex. 11, (S)-2-(1-((6-amino-5-(pyridin-2-yl)pyrimidin-4-yl)amino)propyl)-5-chloro-3-cyclopropylquinazolin-4(3H)-one] to `CC[C@H](Nc1ncnc(N)c1-c1ncn(C)n1)c1nc2cccc(C)c2c(=O)n1C1CC1` [Ex. 18, (S)-2-(1-((6-amino-5-(1-methyl-1H-1,2,4-triazol-3-yl)pyrimidin-4-yl)amino)propyl)-3-cyclopropyl-5-methylquinazolin-4(3H)-one], the CL/F rises from 4.83 mL/min/kg to 54.2 mL/min/kg (11-fold).

`CC[C@H](Nc1ncnc(N)c1-c1noc(C)n1)c1nc2cccc(F)c2c(=O)n1C1CC1` [Ex. 16, (S)-2-(1-((6-amino-5-(5-methyl-1,2,4-oxadiazol-3-yl)pyrimidin-4-yl)amino)-propyl)-3-cyclopropyl-5-fluoroquinazolin-4(3H)-one] and `CC[C@H](Nc1ncnc(N)c1-c1nc(C)no1)c1nc2cccc(F)c2c(=O)n1C1CC1` [Ex. 23, (S)-2-(1-((6-amino-5-(3-methyl-1,2,4-oxadiazol-5-yl)pyrimidin-4-yl)amino)-propyl)-3-cyclopropyl-5-fluoroquinazolin-4(3H)-one] are within 1.5-fold of each other in CL/F: 68.7 mL/min/kg for the first, 71.3 mL/min/kg for the second.

Work on `CC[C@H](Nc1ncnc(N)c1-c1nc(C)no1)c1nc2cccc(C)c2c(=O)n1C1CC1` [Ex. 21, (S)-2-(1-((6-amino-5-(3-methyl-1,2,4-oxadiazol-5-yl)pyrimidin-4-yl)amino)-propyl)-3-cyclopropyl-5-methylquinazolin-4(3H)-one] yielded a CL/F of 55.8 mL/min/kg.
